# Laboratory results reported in patent US20230149419A1, “COMPOSITION FOR PREVENTING OR TREATING NEUROINFLAMMATORY DISEASES, COMPRISING CHLORPROMAZINE” (GliaCellTech Inc., priority 2020, published 2023).
# Columns and labels:
# [1] = system: primary microglia from wild-type mice; experiment: Effect of REV-ERBα agonist on LPS-induced IL-6 secretion (ELISA), wild-type microglia; type: cell-based, mouse; conditions: for IL-6 secreted: WT microglia
# Method: (§1) The efficacy of SR9009 was evaluated by analyzing IL-6 at protein and mRNA expression levels according to post-LPS treatment time (2, 6, 12, and 24 hours) in the same ELISA and qRT-PCR as in Example 5.
# [2] = system: primary microglia from Psen2 mutation mouse model of Alzheimer's disease; experiment: Effect of REV-ERBα agonist on LPS-induced IL-6 secretion (ELISA), Psen2 mutation microglia; type: cell-based; conditions: for IL-6 secreted: KI/+ microglia
# Method: as §1
# [3] = system: primary microglia from wild-type mice; experiment: Effect of REV-ERBα agonist on LPS-induced IL-6 mRNA (qRT-PCR), wild-type microglia; type: cell-based, mouse; conditions: for IL-6 mRNA expression level: WT microglia
# Method: as §1
# [4] = system: primary microglia from Psen2 mutation mouse model of Alzheimer's disease; experiment: Effect of REV-ERBα agonist on LPS-induced IL-6 mRNA (qRT-PCR), Psen2 mutation microglia; type: cell-based; conditions: for IL-6 mRNA expression level: KI/+ microglia
# Method: as §1
# [5] = wild-type microglia, group 32 vs 31, 2, 6, 12 and 24 hours
# [6] = 10 NM SR9009, LPS 1 μg/mL 2 h (Group 34)
# [7] = 10 NM SR9009, LPS 1 μg/mL 6 h (Group 34)
# [8] = 10 NM SR9009, LPS 1 μg/mL 12 h (Group 34)
# [9] = 10 NM SR9009, LPS 1 μg/mL 24 h (Group 34)
structure (smiles),measurement,setting,value
CCOC(=O)N1CCC(CN(Cc2ccc(Cl)cc2)Cc2ccc([N+](=O)[O-])s2)C1 (centres unmarked) [SR9009],IL-6 secreted,"[1]; 10 NM SR9009, LPS 1 μg/mL 2 h (Group 32)",24.467 pg/mL
same,IL-6 secreted,"[1]; 10 NM SR9009, LPS 1 μg/mL 6 h (Group 32)",85.630 pg/mL
same,IL-6 secreted,"[1]; 10 NM SR9009, LPS 1 μg/mL 12 h (Group 32)",361.583 pg/mL
same,IL-6 secreted,"[1]; 10 NM SR9009, LPS 1 μg/mL 24 h (Group 32)",555.053 pg/mL
same,production of IL-6 (in words),[1]; [5],repressed the production of IL-6
same,IL-6 secreted,[2]; [6],38.229 pg/mL
same,IL-6 secreted,[2]; [7],332.114 pg/mL
same,IL-6 secreted,[2]; [8],1146.560 pg/mL
same,IL-6 secreted,[2]; [9],1657.510 pg/mL
same,production of IL-6 (in words),"[2]; Psen2 mutation microglia, SR9009-treated group vs group 33",cannot repress
same,IL-6 mRNA expression level,"[3]; SR9009, LPS 1 μg/mL 2 h (Group 32)",0.456 fold
same,IL-6 mRNA expression level,"[3]; SR9009, LPS 1 μg/mL 6 h (Group 32)",1.098 fold
same,IL-6 mRNA expression level,"[3]; SR9009, LPS 1 μg/mL 12 h (Group 32)",1.129 fold
same,IL-6 mRNA expression level,"[3]; SR9009, LPS 1 μg/mL 24 h (Group 32)",2.150 fold
same,mRNA expression of IL-6 (in words),[3]; [5],repressed the mRNA expression of IL-6
same,IL-6 mRNA expression level,[4]; [6],1.134 fold
same,IL-6 mRNA expression level,[4]; [7],7.810 fold
same,IL-6 mRNA expression level,[4]; [8],8.512 fold
same,IL-6 mRNA expression level,[4]; [9],11.141 fold
same,mRNA expression of IL-6 (in words),"[4]; Psen2 mutant microglia, group 34 vs 33",cannot repress
